Test results: patent US20080292760A1, “Semi-Solid Food Products and Methods For Their Production, Based on Inhibiting Amylase Starch Breakdown” (WAGENINGEN CENTRE FOR FOOD SCIENCES, priority 2004, published 2008)

Target: T1, salivary amylase (Homo sapiens, UniProt P0DUB6)
T1 construct: from tissue; host or cells: saliva in the mouths of the human panelists (in vivo)
T1 sequence (P0DUB6 16-511): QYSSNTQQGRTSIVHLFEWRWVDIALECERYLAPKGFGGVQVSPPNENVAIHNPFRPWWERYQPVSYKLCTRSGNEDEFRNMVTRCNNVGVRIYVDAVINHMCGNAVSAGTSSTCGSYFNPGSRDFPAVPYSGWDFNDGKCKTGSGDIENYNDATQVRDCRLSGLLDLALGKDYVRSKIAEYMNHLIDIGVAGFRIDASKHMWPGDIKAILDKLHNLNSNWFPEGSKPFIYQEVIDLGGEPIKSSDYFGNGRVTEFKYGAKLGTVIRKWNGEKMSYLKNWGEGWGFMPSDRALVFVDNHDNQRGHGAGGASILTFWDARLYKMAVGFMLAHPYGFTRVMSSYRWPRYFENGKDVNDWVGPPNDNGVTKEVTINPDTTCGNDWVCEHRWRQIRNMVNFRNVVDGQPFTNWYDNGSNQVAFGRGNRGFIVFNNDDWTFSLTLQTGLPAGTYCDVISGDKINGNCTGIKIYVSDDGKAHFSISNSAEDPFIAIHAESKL
Experiment: acarbose study: sensory rating of vanilla custard desserts with added acarbose
Type: in vivo
Details: Creamex custard
Protocol: The role of salivary amylase in modifying texture sensations was evaluated in the following examples, in which the level of amylase activity was varied within subjects, rather than between subjects. Alpha-amylase was added in varying concentrations to starch and CMC (non-starch)-based vanilla custard desserts. Additionally, amylase activity was inhibited to various degrees by adding the pharmaceutical amylase inhibitor Acarbose (CAS nr. 56180-94-0) in various concentrations to the same test foods.
Eighteen subjects, 11 females and 7 males aged between 18 and 34 yrs, participated the ‘amylase study’ and 7 different subjects, all females aged between 39 and 56 yrs, participated in the ‘acarbose study’. The subjects participating in the latter study had been informed about acarbose and its possibly side effects if swallowed. To avoid these side effects, subjects expectorated rather than swallowed the acarbose samples. All subjects signed consent forms expressing their willingness to participate in the studies, and all had previously been screened for olfactory and taste disorders and had received extensive training in the description of sensory mouthfeel and afterfeel attributes for semi-solid foods. Testing took place at the sensory facilities of TNO-Nutrition and Food Research in Zeist, The Netherlands. […]

increase of creamy mouthfeel: up to 59%
Compound: C[C@H]1O[C@H](O[C@H]2[C@H](O)[C@@H](O)[C@@H](O[C@H]3[C@H](O)[C@@H](O)C(O)O[C@@H]3CO)O[C@@H]2CO)[C@H](O)[C@@H](O)[C@@H]1N[C@H]1C=C(CO)[C@@H](O)[C@H](O)[C@H]1O (stereo partly shown) [Acarbose]
